According to US5153308A, “S-sulfonated calcitonin derivatives” (Teijin Limited, priority 1988, dated 1992):
*1 amine or outer side, *2 acyl side, *3 side chain or, on linkers, in order; H or OH if unused. Where a SMILES comes first, the peptide text is derived from it. [ ]: non-standard residue; d: D form. X1 = O=C([C@H](CSS(=O)(=O)O)N[*:1])[*:2]

What was measured:
[1] = Stability test in frozen state (residual amount by reverse HPLC); format: physicochemical; conditions: -80° C., 5 months, compared to native calcitonin-I
Protocol: First, 50 μg each of the diS-sulfonated salmon calcitonin-I and salmon calcitonin-I were separately dissolved in 100 μl of 2.5 mM citrate (pH 2.8) buffer, and the solutions were frozen and stored at -80° C. After 5 months, the frozen samples were thawed, and residual diS-sulfonated salmon calcitonin-I and salmon calcitonin-I were measured by reverse HPLC.

[2] = Stability test in liquid form (residual amount by reverse HPLC); format: physicochemical; conditions: 37° C., 2 weeks, compared to native salmon calcitonin-I
Protocol: First, 50 μg each of the diS-sulfonated salmon calcitonin-I and salmon calcitonin-I were separately dissolved in 100 μl of 50 mM Tris-Hcl buffer solution (pH 7.2), and the solutions were stored at 37° C. After 2 weeks, the residual diS-sulfonated salmon calcitonin-I and salmon calcitonin-I were measured by reverse HPLC.

For `CC(C)C[C@H](NC(=O)[C@H](CCCCN)NC(=O)CNC(=O)[C@H](CC(C)C)NC(=O)[C@@H](NC(=O)[C@H](CSS(=O)(=O)O)NC(=O)[C@@H](NC(=O)[C@H](CO)NC(=O)[C@H](CC(C)C)NC(=O)[C@H](CC(N)=O)NC(=O)[C@H](CO)NC(=O)[C@@H](N)CSS(=O)(=O)O)[C@@H](C)O)C(C)C)C(=O)N[C@@H](CO)C(=O)N[C@@H](CCC(N)=O)C(=O)N[C@@H](CCC(=O)O)C(=O)N[C@@H](CC(C)C)C(=O)N[C@@H](Cc1c[nH]cn1)C(=O)N[C@@H](CCCCN)C(=O)N[C@@H](CC(C)C)C(=O)N[C@@H](CCC(N)=O)C(=O)N[C@H](C(=O)N[C@@H](Cc1ccc(O)cc1)C(=O)N1CCC[C@H]1C(=O)N[C@@H](CCCNC(=N)N)C(=O)N[C@H](C(=O)N[C@@H](CC(N)=O)C(=O)N[C@H](C(=O)NCC(=O)N[C@@H](CO)C(=O)NCC(=O)N[C@H](C(=O)N1CCC[C@H]1C(N)=O)[C@@H](C)O)[C@@H](C)O)[C@@H](C)O)[C@@H](C)O` [diS-sulfonated salmon calcitonin-I] (H-[X1]SNLST[X1]VLGKLSQELHKLQTYPRTNTGSGTP-NH2), the “Stability in the frozen state (in words)” value [1] was “remarkably stable” and the “Stability in a solution (in words)” value [2] was “remarkably stable”.
